Data taken from patent US4299820A, “Therapeutic process employing amides of L and DL phenylglycines” (Pfizer Inc., priority 1977, dated 1981).
Square brackets hold non-standard residues; d marks the D form. Peptide text beside a SMILES is read from it. Hpg = N[C@H](C(=O)O)c1ccc(O)cc1

Assays:
[1] = tested on: diaphragm tissue from fat-fed rats; assay: Pyruvate oxidation by diaphragm tissue from fat-fed rats in vitro (14C from labelled pyruvate into CO2); set-up: species or system rat; conditions: diaphragm tissue from rats fed on a high fat diet
Method: Representative compounds of the formula (II) have been tested for their ability to increase the oxidation of glucose and/or pyruvate as follows:
Diaphragm tissue is obtained from rats fed on a high fat diet similar to `Diet B` described by Zaragoza and Felber [Horm.Metab. Res., 2, 323 (1970)]. Pyruvate oxidation by such tissue is assessed by measurement of the rate of incorporation of carbon-14 from carbon-14-labelled pyruvate into carbon dioxide in vitro, as described by Bringolf [Eur. J. Biochem., 26, 360 (1972)]. The rate of pyruvate oxidation is depressed by 50%-75% compared with that by diaphragm tissue from rats fed on a normal diet. When the compounds of the formula (II) are added to the medium, they are found to stimulate pyruvate oxidation by diaphragm tissue from fat-fed rats in a dose dependent manner.

[2] = tested on: pyruvate dehydrogenase enzyme; assay: Proportion of active form of pyruvate dehydrogenase (PDHa/PDHt) in hearts of fat-fed rats after treatment; assay type: in vivo; conditions: fat-fed rat heart, after 11/2 hours
Method: The ability of compounds of formula (II) to increase the proportion of the active form of the pyruvate dehydrogenase enzyme has been measured in the following test:
Rats fed on a high fat diet as in the previous test, are treated either with placebo or with the compound of formula (II) by subcutaneous or intravenous injection or by oral administration. After 11/2 hours the rat hearts are removed and homogenized under conditions which minimize changes in the proportion of the pyruvate dehydrogenase enzyme (PDHt) which is present in the active form, as described by Whitehouse and Randle [Biochem. J., 134, 651 (1973)]. The total amount of the enzyme present (PDHt) and the amount which is present in the active form (PDHa) are assessed by a method similar to that described by Taylor et al. [J. Biol. Chem., 248, 73 (1973)]. The fat-feeding process is found to depress the ratio PDHa/PDHt from a normal value of about 0.7 to a value in the range from 0.05 to 0.2. Treatment of fat-fed rats with the compounds of formula (II) either parenterally or orally, increases this ratio in a dose-dependent manner.

| SMILES | % Stimulation (pyruvate oxidation) ([1]; Concentration 0.25 mM) | PDHa/PDHt ratio, compound ([2]; Dose 1.2 mmoles/kg p.o.) | % Stimulation (pyruvate oxidation) ([1]; Concentration 2 mM) | PDHa/PDHt ratio, compound ([2]; Dose 0.6 mmoles/kg p.o.) | PDHa/PDHt ratio, compound ([2]; Dose 0.6 mmoles/kg s.c.) | PDHa/PDHt ratio, compound ([2]; Dose 1.2 mmoles/kg s.c.) |
| --- | --- | --- | --- | --- | --- | --- |
| Br.COC(=O)[C@@H](NC(=O)[C@@H](N)c1ccc(O)cc1)c1ccc(O)cc1 [Example 1, L,L-Methyl N-[2-(4-hydroxyphenyl)glycyl]-2-(4-hydroxyphenyl)glycinate hydrobromide] (H-[Hpg]-[Hpg]-OMe) | 23% | 1.00 |  |  |  |  |
| Br.Br.N[C@H](C(=O)N[C@H](C(=O)O)c1ccc(O)cc1)c1ccc(O)cc1.N[C@H](C(=O)N[C@H](C(=O)O)c1ccc(O)cc1)c1ccc(O)cc1.O [Example 3, L,L-N-[2-(4-hydroxyphenyl)glycyl]-2-(4-hydroxyphenyl)glycine hydrobromide hemihydrate] (H-[Hpg]-[Hpg]-OH) | 39% | 0.75 |  |  |  |  |
| Br.COC(=O)[C@@H](NC(=O)[C@H](C)N)c1ccc(O)cc1 [Example 7, L,L-Methyl N-alanyl-2-(4-hydroxyphenyl)glycinate hydrobromide] (H-Ala-[Hpg]-OMe) |  |  | 61% |  |  |  |
| Br.C[C@H](N)C(=O)N[C@H](C(=O)O)c1ccc(O)cc1 [Example 8, L,L-N-Alanyl-2-(4-hydroxyphenyl)glycine hydrobromide] (H-Ala-[Hpg]-OH) |  |  | 23% | 0.56 | 0.77 |  |
| Br.CC[C@H](C)[C@H](N)C(=O)N[C@H](C(=O)OC)c1ccc(O)cc1.O [Example 9, L,L-Methyl N-isoleucyl-2-(4-hydroxyphenyl)glycinate hydrobromide monohydrate] (H-Ile-[Hpg]-OMe) |  | 0.24 | 35% |  |  | 0.48 |
| Br.CC[C@H](C)[C@H](N)C(=O)N[C@H](C(=O)O)c1ccc(O)cc1 [Example 10, L,L-N-isoleucyl-2-(4-hydroxyphenyl)glycine hydrobromide] (H-Ile-[Hpg]-OH) |  |  | 10% | 0.72 | 0.86 |  |
